Key:
Escherichia coli MG1655 = assay: Test-tube based antimicrobial assay of purified AMP-SELP fusions; assay type: cell-based; conditions: 1.25 mg/ml in water, equal volume of 1:500 diluted culture, 37° C., after 4 hours
Protocol: (§1) Culture supernatant samples from post-induction time-points from a fermentation of Cecropin A-Melettin (CAM) fused to the N-terminus of SELP47K were tested for growth inhibition of E. coli and B. subtilis. […] Purified CAM-SELP47K (SEQ. ID. NO.32) and MBI-SELP47K (SEQ. ID. NO. 33) biomaterials were similarly tested for their antimicrobial activity. Lyophilized material was dissolved in water at 1.25 mg/ml and used in a test-tube based assay performed as follows: Bacillus subtilis 168 and Escherichia coli MG1655 were each grown from single colonies in 5 ml volumes of LB in test tubes, 37° C., 250 rpm, 16 hrs. Cultures were diluted 1:500 in Terrific broth. Equal volumes of diluted culture and purified AMP-SELP fusions described above were combined in sterile glass test-tubes (1 ml total volume in 5 ml tubes), in duplicate, and incubated at 37° C., 250 rpm. Purified SELP47K was used as a negative control.

Bacillus subtilis 168 = assay: as above; assay type: cell-based; conditions: 1.25 mg/ml in water, equal volume of 1:500 diluted culture, 37° C., after 4 hours
Protocol: as §1

Substance: SELP47K: genetically engineered silk-elastin polymer, head-[(GAGAGS)2(GVGVP)3GKGVP(GVGP)4(GAGAGS)2]13-tail (SEQ ID NO. 19), 886 amino acids
- growth in tubes (Escherichia coli MG1655): growth was clearly visible
- growth in tubes (Bacillus subtilis 168): growth was clearly visible

Reference: patent publication US7691806B2, “Repeat sequence protein polymer active agent congjugates, methods and uses” (priority 2003, dated 2010)
